Structures are written as SMILES. Like-named read-outs stand apart in the source and are kept apart here.

The subject of experiment [1] is Haemonchus contortus larval stage 4, isolate with a resistance to benzimidazoles and ivermectin and anthelmintic-sensitive isolate. Nature of the experiment: Resistance-breaking activity against Haemonchus contortus L4 in vitro, resistant isolate compared with sensitive isolate. Particulars: isolate resistant to benzimidazoles and ivermectin vs sensitive isolate. The class given is cell-based. On the procedure: Anthelmintic resistance-breaking effects of compounds of this invention were tested in vitro using larval stage 4 (“L4”) of the parasitic nematode species Haemonchus contortus (Barber's pole worm in ruminants). One isolate of Haemonchus contortus with a resistance to benzimidazoles and ivermectin was tested in comparison to the anthelmintic-sensitive isolate of Haemonchus contortus. When conducting these experiments, various concentrations of the compounds were incubated in 96-well microtiter plates. Parasites were then distributed at 20 larvae per well. The anthelmintic effects were classified by microscopic examination. The microscopic examination included assessing mortality, damage, motility, progression of development, and neutral red uptake by the larvae in comparison to a DMSO-control and standard anthelmintics. The anthelmintic effects were defined by the minimum effective concentration (“MEC”).

Experiment [2] concerns Haemonchus contortus. Nature of the experiment: Efficacy against Haemonchus contortus in jirds. The class given is in vivo, jirds (Meriones unguiculatus). Conditions: 72 h, read-out: % Reduction in H. Put shortly: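 Jirds orally infected with ~750-3,000 H. contortus L3 larvae were dosed once, orally or subcutaneously, at 2, 10 and/or 50 mg/kg on day 10 post-infection. Stomach larval burden was counted at necropsy 3 days post-treatment; efficacy is the reduction of mean count versus untreated infected controls.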

Experiment [3] concerns Haemonchus contortus. Nature of the experiment: Efficacy against Haemonchus contortus in sheep. The class given is in vivo. Particulars: oral, single treatment, worm burden in abomasum 7 days after treatment. As to the method: Anthelmintic effects of compounds of this invention were tested in vivo using Haemonchus contortus in sheep. The sheep were orally infected with approximately 5,000 third-stage larvae of Haemonchus contortus. Thirty-five days after infection, the sheep in the treatment groups were treated once orally at a dose of 2, 5, 10, and/or 50 mg per kg bodyweight. Seven days after treatment, the sheep were necropsied, and the worm burden in the abomasum was determined. The efficacy was defined as the reduction of the mean worm count in the infected sheep of the treatment groups in comparison to the infected sheep in the untreated negative control group.

For experiment [4], the system named is A. galli (intestinal roundworm of chicken) larval stage 3; O. dentatum (nodular worm of swine) larval stages 3 and 4. Nature of the experiment: Activity against Ascaridia galli and Oesophagostomum dentatum larvae in vitro (minimum effective concentration). The class given is cell-based.
Setting [5] is: read-out: MEC (minimum effective concentration) against two or more of the tested nematodes, in vitro, two or more of A. galli L3, O. dentatum L3, L4, threshold 1 μM.

For the molecule `CC(CN1CCN(c2ccc(C(F)(F)F)cc2)CC1)C(=O)N1CCC(Nc2ccc([N+](=O)[O-])c(C(F)(F)F)c2)CC1` (stereo not drawn) [Example 64, 2-methyl-1-[4-(4-nitro-3-trifluoromethyl-phenylamino)-piperidin-1-yl]-3-[4-(4-trifluoromethyl-phenyl)-piperazin-1-yl]-propan-1-one], the “activity (MEC) against the resistant versus the sensitive isolate of Haemonchus contortus” value in experiment [1] is “the same activity against the resistant and the sensitive isolate”. Moreover, the inhibition in vivo at 50 mg/kg in the experiment with Haemonchus contortus [2] (po) and in the experiment on Haemonchus contortus [2] (sc) was 100% in each case. Further, in the experiment with Haemonchus contortus [3] (10 mg/kg), the “% Reduction in H.” value worked out at 75%. Also, the minimal effective concentration in experiment [4] (read-out: MEC (minimum effective concentration) against one or more of the tested nematodes, in vitro, one or more of A. galli L3, O. dentatum L3, L4, threshold 1 μM) was < 1 µM; in experiment [4] (read-out: MEC (minimum effective concentration) against one or more of the tested nematodes, in vitro, one or more of A. galli L3, O. dentatum L3, L4, threshold 7 μM), < 7 µM; in experiment [4] (setting [5]), < 1 µM.

Take `N#Cc1ccc(NC2CCN(C(=O)CCN3CCN(c4ccc(Cl)cc4)CC3)CC2)cc1C(F)(F)F` [Example 325]: the “activity (MEC) against the resistant versus the sensitive isolate of Haemonchus contortus” value in experiment [1] was “the same activity against the resistant and the sensitive isolate”. Moreover, the inhibition in vivo at 50 mg/kg in the experiment on Haemonchus contortus [2] (po) was determined as 92%; with Haemonchus contortus [2] (sc) it was 97%. Also, in the experiment with Haemonchus contortus [3] (50 mg/kg), the “% Reduction in H.” value amounted to 96%. Moreover, the minimal effective concentration in experiment [4] (setting [5]) was < 1 µM.

(Values after patent publication US9096524B2, “Anthelmintic agents and their use” (Intervet International B.V., priority 2009, dated 2015).)
